One molecule from BindingDB's records for doi:10.1021/jm049478u (Johnson & Johnson Pharmaceutical Research & Development, 2005) can be followed below.

The target of the experiment is Glycogen synthase kinase-3 beta (Oryctolagus cuniculus). Briefly: Inhibition of rabbit Glycogen synthase kinase-3 beta.

Take `CN(C)CCCn1nc(C2=C(c3cn(-c4ccccc4)c4ccccc34)C(=O)NC2=O)c2ccccc21` [3-[1-(3-Dimethylamino-propyl)-1H-indazol-3-yl]-4-(1-phenyl-1H-indol-3-yl)-pyrrole-2,5-dione]: the IC50 came to 270 nM. In other words, the sub-micromolar range.
